Assay results published in ChEMBL document CHEMBL3045200, “Design, synthesis of some 2,6,9-trisubstituted purinyl thioureido derivatives and evaluation of antimicrobial activity” (2012).
Values after ≈ are worked out from the molar mass of the structure shown.

Assays:
Type in all cases: functional
Bacillus subtilis = assay: Antibacterial activity against Bacillus subtilis after 24 hr by broth serial microdilution method
Aspergillus niger = assay: Antifungal activity against Aspergillus niger by broth serial microdilution method
Salmonella typhi = assay: Antibacterial activity against Salmonella enterica subsp. enterica serovar Typhi after 24 hr by broth serial microdilution method
Klebsiella pneumoniae = assay: Antibacterial activity against Klebsiella pneumoniae after 24 hr by broth serial microdilution method
Staphylococcus aureus = assay: Antibacterial activity against Staphylococcus aureus after 24 hr by broth serial microdilution method

Q: `Nc1nc(NCC(=O)NC(=S)Nc2nc3ccc(Cl)cc3s2)c2ncn(S(=O)(=O)c3ccccc3)c2n1` was tested. Which MIC (Bacillus subtilis) did it give?
A: 350 µM (≈ 201 µg/mL)

Q: And the MIC (Aspergillus niger)?
A: 350 µM (≈ 201 µg/mL)

Q: And the MIC (Salmonella typhi)?
A: 530 µM (≈ 304 µg/mL)

Q: And the MIC (Klebsiella pneumoniae)?
A: 350 µM (≈ 201 µg/mL)

Q: What about the MIC (Staphylococcus aureus) of the same molecule?
A: 520 µM (≈ 299 µg/mL)

Q: Which MIC (Bacillus subtilis) does the source give for `Cc1ccc2nc(NC(=S)NC(=O)CNc3nc(N)nc4c3ncn4S(=O)(=O)c3ccccc3)sc2c1` here?
A: 540 µM (≈ 299 µg/mL)

Q: What about the MIC (Aspergillus niger) of the same molecule?
A: 540 µM (≈ 299 µg/mL)

Q: And the MIC (Salmonella typhi)?
A: 530 µM (≈ 293 µg/mL)

Q: And the MIC (Klebsiella pneumoniae)?
A: 540 µM (≈ 299 µg/mL)

Q: And the MIC (Staphylococcus aureus)?
A: 540 µM (≈ 299 µg/mL)

Q: For `OC(Cn1cncn1)(Cn1cncn1)c1ccc(F)cc1F` [FLUCONAZOLE], which MIC (Aspergillus niger) is on record?
A: 350 µM (≈ 107 µg/mL)

Q: `CC1(C)S[C@@H]2[C@H](NC(=O)[C@H](N)c3ccccc3)C(=O)N2[C@H]1C(=O)O` [AMPICILLIN] was tested. Which MIC (Bacillus subtilis) did it give?
A: 270 µM (≈ 94.3 µg/mL)

Q: What about the MIC (Salmonella typhi) of the same molecule?
A: 200 µM (≈ 69.9 µg/mL)

Q: And the MIC (Klebsiella pneumoniae)?
A: 130 µM (≈ 45.4 µg/mL)

Q: What about the MIC (Staphylococcus aureus) of the same molecule?
A: 130 µM (≈ 45.4 µg/mL)

Q: With `COc1ccc2nc(NC(=S)NC(=O)CNc3nc(N)nc4c3ncn4S(=O)(=O)c3ccccc3)sc2c1` as the molecule, how does the MIC (Bacillus subtilis) read?
A: 180 µM (≈ 103 µg/mL)

Q: What about the MIC (Aspergillus niger) of the same molecule?
A: 180 µM (≈ 103 µg/mL)

Q: What about the MIC (Salmonella typhi) of the same molecule?
A: 540 µM (≈ 308 µg/mL)

Q: What about the MIC (Klebsiella pneumoniae) of the same molecule?
A: 350 µM (≈ 199 µg/mL)

Q: What about the MIC (Staphylococcus aureus) of the same molecule?
A: 350 µM (≈ 199 µg/mL)

Q: What does the source list for `Nc1nc(NCC(=O)NC(=S)Nc2nc3cc([N+](=O)[O-])ccc3s2)c2ncn(S(=O)(=O)c3ccccc3)c2n1`?
A: MIC (Bacillus subtilis): 510 µM (≈ 298 µg/mL); MIC (Aspergillus niger): 510 µM (≈ 298 µg/mL); MIC (Salmonella typhi): 510 µM (≈ 298 µg/mL); MIC (Klebsiella pneumoniae): 510 µM (≈ 298 µg/mL); MIC (Staphylococcus aureus): 510 µM (≈ 298 µg/mL)

Q: Which MIC (Bacillus subtilis) does the source give for `Nc1nc(NCC(=O)NC(=S)Nc2nc3c(Cl)cccc3s2)c2ncn(S(=O)(=O)c3ccccc3)c2n1` here?
A: 350 µM (≈ 201 µg/mL)

Q: What about the MIC (Aspergillus niger) of the same molecule?
A: 350 µM (≈ 201 µg/mL)

Q: What about the MIC (Salmonella typhi) of the same molecule?
A: 350 µM (≈ 201 µg/mL)

Q: And the MIC (Klebsiella pneumoniae)?
A: 170 µM (≈ 97.6 µg/mL)

Q: What about the MIC (Staphylococcus aureus) of the same molecule?
A: 350 µM (≈ 201 µg/mL)

Q: Which results are given for `COc1ccc2sc(NC(=S)NC(=O)CNc3nc(N)nc4c3ncn4S(=O)(=O)c3ccccc3)nc2c1`?
A: MIC (Bacillus subtilis): 350 µM (≈ 199 µg/mL); MIC (Aspergillus niger): 350 µM (≈ 199 µg/mL); MIC (Salmonella typhi): 350 µM (≈ 199 µg/mL); MIC (Klebsiella pneumoniae): 530 µM (≈ 302 µg/mL); MIC (Staphylococcus aureus): 530 µM (≈ 302 µg/mL)

Q: What does the source list for `Nc1nc(NCC(=O)NC(=S)Nc2nc3ccc(F)cc3s2)c2ncn(S(=O)(=O)c3ccccc3)c2n1`?
A: MIC (Bacillus subtilis): 360 µM (≈ 201 µg/mL); MIC (Aspergillus niger): 360 µM (≈ 201 µg/mL); MIC (Salmonella typhi): 360 µM (≈ 201 µg/mL); MIC (Klebsiella pneumoniae): 180 µM (≈ 100 µg/mL); MIC (Staphylococcus aureus): 530 µM (≈ 296 µg/mL)

Q: Which results are given for `O=C(O)c1cn(C2CC2)c2cc(N3CCNCC3)c(F)cc2c1=O` [CIPROFLOXACIN]?
A: MIC (Bacillus subtilis): 250 µM (≈ 82.8 µg/mL); MIC (Salmonella typhi): 190 µM (≈ 63 µg/mL); MIC (Klebsiella pneumoniae): 120 µM (≈ 39.8 µg/mL); MIC (Staphylococcus aureus): 190 µM (≈ 63 µg/mL)

Q: How did the MIC (Bacillus subtilis) turn out when `Nc1nc(NCC(=O)NC(=S)Nc2nc3ccc([N+](=O)[O-])cc3s2)c2ncn(S(=O)(=O)c3ccccc3)c2n1` was run?
A: 510 µM (≈ 298 µg/mL)

Q: What about the MIC (Aspergillus niger) of the same molecule?
A: 510 µM (≈ 298 µg/mL)

Q: What about the MIC (Salmonella typhi) of the same molecule?
A: 510 µM (≈ 298 µg/mL)

Q: And the MIC (Klebsiella pneumoniae)?
A: 510 µM (≈ 298 µg/mL)

Q: What about the MIC (Staphylococcus aureus) of the same molecule?
A: 510 µM (≈ 298 µg/mL)

Q: `Nc1nc(NCC(=O)NC(=S)Nc2nc3c([N+](=O)[O-])cccc3s2)c2ncn(S(=O)(=O)c3ccccc3)c2n1` was tested. Which MIC (Bacillus subtilis) did it give?
A: 510 µM (≈ 298 µg/mL)

Q: What about the MIC (Aspergillus niger) of the same molecule?
A: 510 µM (≈ 298 µg/mL)

Q: What about the MIC (Salmonella typhi) of the same molecule?
A: 510 µM (≈ 298 µg/mL)

Q: What about the MIC (Klebsiella pneumoniae) of the same molecule?
A: 510 µM (≈ 298 µg/mL)

Q: What about the MIC (Staphylococcus aureus) of the same molecule?
A: 510 µM (≈ 298 µg/mL)

Q: How did the MIC (Bacillus subtilis) turn out when `Nc1nc(NCC(=O)NC(=S)Nc2nc3ccccc3s2)c2ncn(S(=O)(=O)c3ccccc3)c2n1` was run?
A: 1290 µM (≈ 696 µg/mL)

Q: And the MIC (Aspergillus niger)?
A: 550 µM (≈ 297 µg/mL)

Q: What about the MIC (Salmonella typhi) of the same molecule?
A: 560 µM (≈ 302 µg/mL)

Q: What about the MIC (Klebsiella pneumoniae) of the same molecule?
A: 550 µM (≈ 297 µg/mL)

Q: What about the MIC (Staphylococcus aureus) of the same molecule?
A: 560 µM (≈ 302 µg/mL)
